Test results published in patent publication US6337348B1, “Oxy-vanadium (iv) complexes having spermicidal activity” (Parker Hughes Institute, priority 1998, dated 2002).

Key:
human sperm [1] = assay: Flow cytometric quantitation of sperm acrosome reaction (anti-CD46 mAb binding); assay type: cell-based; conditions: tested at 100 μM, 3 hours, 37° C., mean of two experiments
Protocol: In experiments designed to assess the comparative effects of oxovanadium (IV) complexes and N-9 on sperm acrosome reaction, motile fractions of sperm (10^7/ml) prepared from a single donor were incubated in 1 ml of BWW−0.3% BSA in the presence of 100 μM each of the vanadocene complexes, VO(phen), VO(phen)2, VO(Me2—phen), VO(Me2—phen)2, VO(Cl—phen), VO(Cl—phen)2, VO(bipy), VO(bipy)2, VO(Me2—bipy), VO(Me2—bipy)2, and VO(Br,OH—acph)2 in 0.1% DMSO, N-9, or DMSO (0.1%) alone at 37° C. After 3 hours, 5 μg/ml of purified, phycoerythrin (PE)-conjugated murine anti-CD46 monoclonal antibody (mAb; clone 122-2; Research Diagnostics, Flanders, N.J.) was added and the sperm suspensions incubated for an additional 30 minutes. The suspensions was washed in Tyrode's salt solution (Sigma) containing 1% BSA (1% TBSA) and the percentage of CD46-positive sperm were analyzed by flow cytometry using a FACS Vantage flow cytometer (Becton Dickinson, Mountain View, Calif.), as described previously (DeCruz et al., 1996, Biol Reprod. 54:1217-1228; DeCruz et al., 1992, Fertil. Seril., 58:633-636). Two separate experiments were performed to quantitate acrosomal loss following exposure of sperm to oxovanadium (IV) complexes.

human sperm [2] = assay: Sperm immobilization assay (SIA), motility by CASA; assay type: cell-based; conditions: read-out: EC50 (concentration that decreases the proportion of motile sperm by 50%); 3 hours incubation at 37° C., BWW-0.3% BSA, serial 2-fold dilutions 250 μM to 1.9 μM, mean of two experiments
Protocol: To evaluate the spermicidal effects of complexes of oxovanadium (IV), VO(phen), VO(phen)2, VO(Me2—phen), VO(Me2—phen)2, VO(Cl—phen), VO(Cl—phen)2], VO(bipy), VO(bipy)2, VO(Me2—bipy), VO(Me2—bipy)2, and VO(Br,OH—acph)2, a highly motile fraction of pooled donor sperm (N=5) was prepared by discontinuous (90−45%). Percoll gradient (Conception Technologies, San Diego, Calif.) centrifugation and the “swim-up” method as described previously (Aitken et al., 1989, Biol. Reprod. 40:183-197). All donor specimens were obtained after informed consent and in compliance with the guidelines of the Hughes Institutional Review Board. Motile sperm (≳10×10^6/ml) were suspended in 1 ml of Biggers, Whitten, and Whittingham's medium (BWW) containing 0.3% BSA (fraction V; Sigma Chemical Co., St. Louis, Mo.) in the presence and absence of serial 2-fold dilutions of test substance (250 μM−1.9 μM) in 0.25% dimethyl sulfoxide (DMSO). For each experiment, fresh stock solutions (100 mM) of vanadium compounds were prepared in DMSO. A corresponding volume of DMSO (0.25%) was added to control sperm suspension. After 3 hours of incubation at 37° C., the percentage of motile sperm was evaluated by computer-assisted sperm motion analysis (CASA) as described previously (Aitken et al., 1989, Supra). The percentages of motilities were compared with those of sham-treated control suspensions of motile sperm.
For CASA, 4 μl each of sperm suspension was loaded into two 20 μm Microcell chambers placed onto a counting chamber at 37° C. At least 5-8 fields per chamber were scanned for analysis using a Hamilton Thorne Integrated Visual Optical System (IVOS) version 10 instrument (Hamilton Thorne Research Inc., Danvers, Mass.). Each field was recorded for 30 seconds. The Hamilton Thorne computer calibrations were set at 30 frames at a frame rate of 30 images/seconds. Other settings were as follows: minimum contrast 8; minimum size 6; low-size gate, 1.0; high-size gate,2.9; low-intensity gate, 0.6; high-intensity gate, 1.4; phase-contrast illumination; low path velocity at 10 μm/seconds and threshold straightness at 80%; magnification factor, 1.95. The performance of the analyzer was periodically checked using the playback function.
Results for the various numerical sperm functional parameters are presented as mean±standard deviation (SD) values. Comparison between oxovanadium (IV) complex-treated and control sperm relative to sperm motility parameters and apoptosis were performed using paired, two-tailed Student's T-test. A p value of <0.05 was considered significant.

For nonoxynol-9 [N-9, reference compound], the “Anti-CD46 positive sperm (%)” value (human sperm [1]) was 86% and the EC50 (human sperm [2]) was 78.5 µM.
